According to patent publication US7384943B2, “Substituted chroman derivatives” (AstraZeneca AB, priority 1997, dated 2008):

Compound | melting point
CN1CCN(c2cccc3c2C[C@H](NC(=O)c2ccc(C(F)(F)F)cc2)CO3)CC1 [Example 19, (S)-N-[5-(4-Methylpiperazin-1-yl)-3,4-dihydro-2H-1-benzopyran-3-yl]-4-trifluoromethylbenzamide] | 212 to 214 °C
CN1CCN(c2cccc3c2C[C@H](NC(=O)c2ccc(C(F)(F)F)cc2C(F)(F)F)CO3)CC1 [Example 28, (S)-N-[5-(4-Methylpiperazin-1-yl)-3,4-dihydro-2H-1-benzopyran-3-yl]-2,4-bis(trifluoromethyl)benzamide] | 202 to 203 °C
CN1CCN(c2cccc3c2C[C@H](NC(=O)c2ccc(N4CCNC(=O)CC4)cc2)CO3)CC1 [Example 35, (S)-N-[5-(4-Methylpiperazin-1-yl)-3,4-dihydro-2H-1-benzopyran-3-yl]-4-(hexa hydro-1,4-diazepin-5-on-1-yl)benzamide] | 244 to 247 °C (dec.)
CN1CCN(c2cccc3c2C[C@H](NC(=O)c2ccc(N4CCNCC4)cc2)CO3)CC1 [Example 43, (S)-N-[5-(4-Methylpiperazin-1-yl)-3,4 dihydro-2H-1-benzopyran-3-yl]-4-(piperazin-1-yl)benzamide] | > 102 °C
CN1CCN(c2cccc3c2C[C@H](NC(=O)c2ccc(N4CCN(CCO)CC4)cc2)CO3)CC1 [Example 48, (S)-N-[5-(4-Methylpiperazin-1-yl)-3,4 dihydro-2H-1-benzopyran-3-yl]-4-[4-(2-hydroxyethyl)-piperazin-1-yl]benzamide] | 211 to 212 °C

The remaining lines, values ahead:

melting point | Compound
210 to 212 °C | CN1CCN(c2cccc3c2C[C@H](NC(=O)c2ccc(N4CCOCC4)cc2)CO3)CC1 [Example 14, (S)-N-[5-(4-Methylpiperazin-1-yl)-3,4-dihydro-2H-1-benzopyran-3-yl]-4-morpholinobenzamide]
88 °C (dec.) | CC(=O)N1CCN(c2ccc(C(=O)N[C@@H]3COc4cccc(N5CCN(C)CC5)c4C3)cc2)CC1 [Example 44, (S)-N-[5-(4-Methylpiperazin-1-yl)-3,4 dihydro-2H-1-benzopyran-3-yl]-4-(4-acetylpiperazin-1-yl)benzamide]
222 °C (dec.) | CN1CCN(c2cccc3c2C[C@H](NC(=O)c2ccc(C(=O)N4CCOCC4)cc2)CO3)CC1 [Example 45, (S)-N-[5-(4-Methylpiperazin-1-yl)-3,4 dihydro-2H-1-benzopyran-3-yl)-4-(morpholinocarbonyl)benzamide]
219 °C (dec.) | CN1CCN(c2cccc3c2C[C@H](NC(=O)c2ccc(C(=O)N(C)C)cc2)CO3)CC1 [Example 46, (S)-N-[5-(4-Methylpiperazin-1-yl)-3,4-dihydro-2H-benzopyran-3-yl)-4-(N,N-dimethylaminocarbonyl)benzamide]
